The record followed here is patent EP3180003B1 (The Regents of the University of California, priority 2014, dated 2016).

Molecules are shown by their SMILES. Like-named read-outs stand apart in the source and are kept apart here.

The target in assay [1] is T1, PKCε (Homo sapiens, UniProt Q02156).
T1 sequence (Q02156 1-737): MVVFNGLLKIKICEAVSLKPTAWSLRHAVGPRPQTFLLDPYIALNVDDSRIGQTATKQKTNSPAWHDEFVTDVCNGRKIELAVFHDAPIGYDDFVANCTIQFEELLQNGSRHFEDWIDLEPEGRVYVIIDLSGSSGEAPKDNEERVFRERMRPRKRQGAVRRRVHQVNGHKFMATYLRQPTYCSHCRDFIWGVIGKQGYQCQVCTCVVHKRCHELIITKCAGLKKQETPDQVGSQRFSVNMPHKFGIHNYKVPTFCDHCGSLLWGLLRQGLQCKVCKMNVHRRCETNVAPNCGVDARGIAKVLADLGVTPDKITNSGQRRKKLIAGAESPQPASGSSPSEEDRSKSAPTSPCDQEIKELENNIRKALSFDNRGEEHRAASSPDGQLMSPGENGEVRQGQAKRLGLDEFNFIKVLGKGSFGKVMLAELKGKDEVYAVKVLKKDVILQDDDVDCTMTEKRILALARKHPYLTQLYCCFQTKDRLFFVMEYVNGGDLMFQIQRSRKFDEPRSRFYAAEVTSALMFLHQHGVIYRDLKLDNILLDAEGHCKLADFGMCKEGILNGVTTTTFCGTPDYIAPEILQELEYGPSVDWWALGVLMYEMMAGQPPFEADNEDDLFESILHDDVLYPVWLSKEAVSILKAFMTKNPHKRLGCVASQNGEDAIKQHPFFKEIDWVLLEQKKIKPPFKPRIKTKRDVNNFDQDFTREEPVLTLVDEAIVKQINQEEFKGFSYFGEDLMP
Briefly: FRET based LANCE Ultra kinase assay. It is filed as biochemical. On the procedure: Certain compounds of this invention were tested in the captioned assay.

For assay [2], the target named is T1, PKCε. As to the kind of experiment: Primary PKCε phosphotransferase assay. It is filed as biochemical. The conditions noted are these: log of molar IC50. Also on record: FLAG; made in house; host or cells: COS-7 cells. On the procedure:
The assay mixture can contain 2 ng FLAG-tagged human PKCε expressed and purified from COS-7 cells in 25 µl kinase buffer containing 20 mM Tris-HCI, pH 7.4, 0.25 mM EGTA, 0.1 mg/ml BSA, 0.72% TritonX-100, 10 mM MgCl2, 0.48 µg/µl L-α-phosphatidylserine (PS) and 0.107 µg/µl sn-1,2-dioleoylglecerol (DG) (Avanti Polar Lipids, Alabaster, AL, USA), 2 µM K(Biotin)-[…], 2.5 µM ATP and 0.05 µCi [^32γ-P]ATP. After incubation at 27 °C for 90 min, the reaction is terminated by adding 12.5 µl of 7.5 M of guanidine hydrochloride. Eight microliters of reaction mixture is spotted onto a pre-cut streptavidin-coated SAM Biotin Capture membrane. […] The membrane is then air dried at room temperature for 60 min and radioactivity remaining on the membrane can be measured by liquid scintillation counting. Specific PKCε activity can then be calculated as the difference between cpms detected in the presence and absence of lipids (PS and DG). Maximal PKCε activity (positive control) can be detected in reactions lacking an inhibitor. […]
IC50 values can be calculated from normalized dose-response curves by nonlinear regression analysis.
The ability of the compounds disclosed herein to inhibit PKCε can be assessed using the primary PKCε assay described above using the biotinylated substrate […]. […]

The next assay has as its target T2, PKCθ (Homo sapiens, UniProt Q04759).
T2 construct: purchased Invitrogen P2996
As to the kind of experiment: Inhibition of novel PKCθ (Example 4). It is filed as biochemical. The text has this: Inhibition of PKC theta activity can be measured using the same primary phosphotransferase assay for PKCε except one substitutes recombinant human PKC theta purchased from Invitrogen for PKCε. PKC theta can also be assayed with a fluorescence polarization (FP) assay using the commercially available Protein Kinase C Assay Kit, Red, from Invitrogen (Product ID No P2941), essentially in accordance with the protocol supplied by the manufacturer. The substrate used is […] (Mw 1561), which can be obtained from Invitrogen (Product ID No P2760). The isozyme PKC theta can be obtained from Invitrogen (Product ID No P2996).
(§1) The specificity of the compounds disclosed herein for inhibition of PKCε can be determined by examining their ability to inhibit ROCK1 and selected members of each PKC subfamily according to the protocols of the counter-screening assay for selectivity disclosed herein. This assay can be performed according to the biochemical assay for PKCε described above with some modifications. Rather than varying the concentrations of the inhibitors, only 10µM of each compound can be used.

The next assay deals with T3, PKCδ (Homo sapiens, UniProt Q05655).
T3 construct: purchased Invitrogen (Carlsbad, CA, USA)
As to the kind of experiment: Inhibition of novel PKCδ (Example 4). It counts as biochemical. As for the experimental part: (§2) For example, to measure inhibition of conventional PKCγ, novel PKCδ, and atypical PKCζ, the same kinase assay disclosed above for PKCε can be used with recombinant human PKCγ, PKCδ, or PKCζ purchased from Invitrogen (Carlsbad, CA, USA) in place of PKCs, with 0.4 mM CaCl2 assay buffer for PKCγ.
as §1

In the next assay the test system is C57BL/6 mice. As to the kind of experiment: Ethanol-induced loss of righting reflex (LORR) in vivo. The conditions noted are these: 10 mg/kg i.p. As for the experimental part:
Compound 1 was administered (10 mg/kg) i.p. to C57BL/6 mice, which were administered 20 min later 3.6 g/kg ethanol i.p. to induce loss of righting. […] These findings indicate that this class of compounds can cross the blood-brain barrier and act as a PKCε inhibitor, and prolong the duration of the LORR in the treated animals. Such increased signs of ethanol intoxication are contemplated to be aversive and to limit ethanol self-administration.

Assay [3] has as its target T1, PKCε. As to the kind of experiment: Cell-based assay for PKCε modulation of GABAA receptors (γ2 S327 phosphorylation, ELISA format). The conditions noted are these: HEK293 cell line expressing α1β2γ2 GABAA receptors and over-expressing PKCε; anti-γ2S(P)327 ELISA.
Protocol: PKCε inhibition can also be measured by assaying benzodiazepine modulation of GABAA receptors in intact cells. PKCε decreases benzodiazepine potency at GABAA receptors by phosphorylating S327 of GABAA y2 subunits. The GABAA cell-based assay uses a HEK293 cell line that expresses α1β2γ2 GABAA receptors and over-expresses PKCε. […] This 6-fold difference in benzodiazepine potency can be detected without addition of a PKC activator. The assay is performed using an anti-phospho antibody that recognizes γ2S(P)327 in an ELISA format to generate 8 point dose-response curves for each compound. Background values, detected from wells in which no primary antibody was added, are subtracted from sample values. Maximal phosphorylation (positive control) is detected in reactions containing phorbol ester and lacking an inhibitor.
Assay [4] addresses T1, PKCε. Briefly: Inhibition of PKCε (Example 4). It is filed as biochemical.
In another assay the target is T4, PKCγ (Homo sapiens, UniProt P05129).
T4 construct: purchased Invitrogen (Carlsbad, CA, USA)
As to the kind of experiment: Inhibition of conventional PKCγ (Example 4). It counts as biochemical. The note with it: for inhibition of conventional PKCγ: at 10 µM, result in words. As for the experimental part: as §2, §1

For a further assay, the target named is T5, PKCζ (Homo sapiens, UniProt Q05513).
T5 construct: purchased Invitrogen (Carlsbad, CA, USA)
T5 sequence (Q05513 1-592): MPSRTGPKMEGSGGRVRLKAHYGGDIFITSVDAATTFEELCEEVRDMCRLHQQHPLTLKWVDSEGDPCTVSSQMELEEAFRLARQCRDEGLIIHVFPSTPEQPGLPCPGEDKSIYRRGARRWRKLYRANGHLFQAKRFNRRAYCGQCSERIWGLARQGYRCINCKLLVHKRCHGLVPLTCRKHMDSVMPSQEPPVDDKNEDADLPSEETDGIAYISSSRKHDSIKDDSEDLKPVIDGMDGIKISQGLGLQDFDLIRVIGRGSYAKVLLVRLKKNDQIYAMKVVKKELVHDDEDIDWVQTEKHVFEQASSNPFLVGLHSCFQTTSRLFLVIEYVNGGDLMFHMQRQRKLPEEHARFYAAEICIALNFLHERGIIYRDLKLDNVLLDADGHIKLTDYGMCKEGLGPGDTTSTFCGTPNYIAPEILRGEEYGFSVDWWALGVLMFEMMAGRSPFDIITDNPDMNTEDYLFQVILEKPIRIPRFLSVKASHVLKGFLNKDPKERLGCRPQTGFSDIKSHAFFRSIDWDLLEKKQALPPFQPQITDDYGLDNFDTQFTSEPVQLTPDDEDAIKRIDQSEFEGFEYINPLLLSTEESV
Briefly: Inhibition of atypical PKCζ (Example 4). The note with it: for activity against atypical PKCζ: at 10 µM, result in words. It counts as biochemical. As for the experimental part:
as §2, §1

Setting [5] is: log of molar IC50, read-out: Log IC50 (converted).

T3 sequence (Q05655 whole entry): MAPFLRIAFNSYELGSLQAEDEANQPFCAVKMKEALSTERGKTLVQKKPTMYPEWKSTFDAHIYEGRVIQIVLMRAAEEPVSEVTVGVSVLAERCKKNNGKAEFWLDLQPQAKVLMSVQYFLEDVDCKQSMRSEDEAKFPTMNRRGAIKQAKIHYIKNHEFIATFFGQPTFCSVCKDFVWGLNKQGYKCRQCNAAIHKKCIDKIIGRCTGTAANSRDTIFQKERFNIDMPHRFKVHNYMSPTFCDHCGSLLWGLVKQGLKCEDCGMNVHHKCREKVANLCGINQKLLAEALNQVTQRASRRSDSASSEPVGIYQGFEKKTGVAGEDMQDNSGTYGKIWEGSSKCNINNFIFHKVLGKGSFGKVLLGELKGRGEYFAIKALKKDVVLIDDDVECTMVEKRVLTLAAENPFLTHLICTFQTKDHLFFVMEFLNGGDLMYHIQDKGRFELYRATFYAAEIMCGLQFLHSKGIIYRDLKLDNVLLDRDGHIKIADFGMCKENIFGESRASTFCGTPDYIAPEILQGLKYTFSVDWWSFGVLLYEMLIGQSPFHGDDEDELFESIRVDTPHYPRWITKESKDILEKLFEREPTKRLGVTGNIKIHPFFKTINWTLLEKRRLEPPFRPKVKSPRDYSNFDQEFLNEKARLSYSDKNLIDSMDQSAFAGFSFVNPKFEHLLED
T2 sequence (Q04759 whole entry): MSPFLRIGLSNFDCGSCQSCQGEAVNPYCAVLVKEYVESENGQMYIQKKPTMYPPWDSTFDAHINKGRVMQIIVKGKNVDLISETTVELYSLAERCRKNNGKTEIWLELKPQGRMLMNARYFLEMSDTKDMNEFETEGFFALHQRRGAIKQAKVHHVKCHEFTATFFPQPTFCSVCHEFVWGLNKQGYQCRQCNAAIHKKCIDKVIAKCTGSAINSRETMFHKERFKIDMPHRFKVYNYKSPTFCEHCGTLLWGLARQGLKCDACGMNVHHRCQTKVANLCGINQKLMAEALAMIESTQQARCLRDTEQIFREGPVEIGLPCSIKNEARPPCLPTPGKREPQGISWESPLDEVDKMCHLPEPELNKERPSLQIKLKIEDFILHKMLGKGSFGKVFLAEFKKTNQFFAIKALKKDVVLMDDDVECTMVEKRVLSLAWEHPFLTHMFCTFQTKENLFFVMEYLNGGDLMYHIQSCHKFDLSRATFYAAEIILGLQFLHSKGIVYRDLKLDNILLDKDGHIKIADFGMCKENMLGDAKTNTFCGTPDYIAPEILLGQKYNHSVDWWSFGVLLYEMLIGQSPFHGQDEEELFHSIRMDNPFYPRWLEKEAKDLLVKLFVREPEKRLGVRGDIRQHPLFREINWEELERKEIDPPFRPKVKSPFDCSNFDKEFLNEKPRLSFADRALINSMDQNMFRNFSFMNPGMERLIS

As to `NC(CNC(=O)C1(c2ccc(F)cc2Cl)CCCC1)[C@H]1CC[C@H](C(=O)Nc2ccncc2)CC1` (stereo partly drawn) [Compound 4], on PKCε [1] (log of molar IC50), the “Log IC50” value is -6.917. Also, on PKCε [1] (read-out: IC50), the IC50 (as a rule, the concentration at which inhibition is half-maximal) worked out at 121 nM.
`CC(C)(C(=O)NCC(N)[C@H]1CC[C@H](C(=O)Nc2ccncc2)CC1)c1cccs1` (stereo partly drawn) [Compound 7]: on PKCε [1] (log of molar IC50), the “Log IC50” value was -6.553. On PKCε [1] (read-out: IC50), the IC50 was 280 nM.
As to `NC(C(=O)NC1COc2ccccc21)[C@H]1CC[C@H](C(=O)Nc2ccncc2)CC1` (stereo partly drawn) [Compound 10], on PKCε [1] (log of molar IC50), the “Log IC50” value is -5.695. Also, at PKCε [1] (read-out: IC50), the IC50 stood at 2020 nM.
`NC(C(=O)NCc1ccc(F)cc1)[C@H]1CC[C@H](C(=O)Nc2ccncc2)CC1` (stereo partly drawn) [Compound 12]: at PKCε [1] (log of molar IC50), the “Log IC50” value is recorded as -5.625. Further, the IC50 at PKCε [1] (read-out: IC50) is 2370 nM.
As to `NC(C(=O)N[C@@H]1CCCc2ccccc21)[C@H]1CC[C@H](C(=O)Nc2ccncc2)CC1` (stereo partly drawn) [Compound 11], the IC50 on PKCε [1] (setting [5]) and on PKCε [1] (read-out: IC50) was 3090 nM in each case.
With `NC(C(=O)NCC1(c2ccc(Cl)cc2)CC1)[C@H]1CC[C@H](C(=O)Nc2ccncc2)CC1` (stereo partly drawn) [Compound 2], the IC50 is 3240 nM on PKCε [1] (setting [5]) and 1690 nM against PKCε [2].
On to `NC(CNC(=O)C1CCc2cc(Cl)ccc21)[C@H]1CC[C@H](C(=O)Nc2ccncc2)CC1` (stereo partly drawn) [Compound 8], for which the “Log IC50” value on PKCε [1] (log of molar IC50) is given as -6.445. For the same molecule, the IC50 at PKCε [1] (read-out: IC50) worked out at 359 nM.
With `NC(CNC(=O)C1(c2ccc(F)c(F)c2)CC1)[C@H]1CC[C@H](C(=O)Nc2ccncc2)CC1` (stereo partly drawn) [Compound 6], at PKCε [1] (log of molar IC50), the “Log IC50” value is given as -7.282.
In the case of `NC(CNC(=O)C1(c2ccc(Cl)cc2)CC1)[C@H]1CC[C@H](C(=O)Nc2ccncc2)CC1` (relative stereo) [Compound 1, trans-4-[1-Amino-2-[[[1-(4-chlorophenyl)cyclopropyl]carbonyl]amino]ethyl]-N-4-pyridinyl-cyclohexylcarboxamide], the inhibition (as a rule, the relative decrease from the control value, in per cent) at 10 µM is 96.9 ± 1.1% on PKCθ (10 µM inhibitor, n=3, read-out: Percent inhibition of PKC activity, Novel PKCθ); 96.3 ± 0.7% on PKCδ (10 µM inhibitor, n=3, read-out: Percent inhibition of PKC activity, Novel PKCδ); 16.7 ± 3.8% on PKCγ (10 µM inhibitor, n=3, read-out: Percent inhibition of PKC activity, Conventional PKCγ); 55.9 ± 3.8% at PKCζ (10 µM inhibitor, n=3, read-out: Percent inhibition of PKC activity, Atypical PKCζ). In addition, the Ki (commonly a measure of affinity in units of concentration, obtained from inhibition or displacement) at PKCθ (n=3) is 91.7 nM; at PKCδ (n=3) it was 173 nM; on PKCε [4] (PKCε, read-out: Ki), < 20 nM; at PKCε [4] (n=3, read-out: PKCε Ki) it was 17 nM. In addition, the IC50 on PKCθ (read-out: PKCθ Log IC50 (converted)) is 372 nM; on PKCδ (read-out: PKCδ Log IC50 (converted)) it was 708 nM; on PKCε [1] (read-out: IC50), 56.6 nM; against PKCε [2] it was 131 nM; at PKCε [3] it was 8.9 nM; on PKCε [4] (read-out: PKCε Log IC50 (converted)), 55 nM. The “increase of LORR duration” value in the assay on C57BL/6 mice (20 min before 3.6 g/kg ethanol i.p., versus vehicle-treated mice, p = 0.036) is 45%. Further, in the assay on C57BL/6 mice (drug-treated mice (n=10), 3.6 g/kg ethanol i.p., vehicle 31.4 ± 4.9 (n=8)), the LORR duration came to 45.7 ± 4.0. Further, on PKCγ, the “inhibition of conventional PKCγ” value is given as “inhibited”.
Regarding `NC(CNC(=O)C1(c2ccc(F)cc2)CCCC1)[C@H]1CC[C@H](C(=O)Nc2ccncc2)CC1` (stereo partly drawn) [Compound 5], the “Log IC50” value on PKCε [1] (log of molar IC50) is given as -7.370. Further, the “PKCε Log IC50(M)” value at PKCε [4] (log IC50 ± SE, n=3) is recorded as -7.37 ± 0.03 M. For the same molecule, the “inhibition of conventional PKCγ” value at PKCγ is given as “inhibited”. Further, the “activity against atypical PKCζ” value at PKCζ is reported as “almost no activity”.
Turning to `CC(C)(C(=O)NCC(N)[C@H]1CC[C@H](C(=O)Nc2ccncc2)CC1)c1ccc(Cl)cc1` (stereo partly drawn) [Compound 9], the “Log IC50” value at PKCε [1] (log of molar IC50) is -7.398. The half-maximal inhibitory concentration (IC50) at PKCε [1] (read-out: IC50) amounted to 40 nM. Besides, the “inhibition of conventional PKCγ” value at PKCγ is reported as “inhibited”. The “activity against atypical PKCζ” value on PKCζ is recorded as “almost no activity”.
In the case of `NC(CNC(=O)C1(c2ccc(F)cc2)CC1)[C@H]1CC[C@H](C(=O)Nc2ccncc2)CC1` (stereo partly drawn) [Compound 3], the “Log IC50” value at PKCε [1] (log of molar IC50) is recorded as -6.835. In addition, the IC50 at PKCε [1] (read-out: IC50) came to 146 nM.
